Patent US7575857B2, “Screening method for identifying protective substances for treating neurodegenerative and/or ischemic disorders” (SYGNIS Bioscience GmbH & Co. KG, priority 2002, dated 2009)
Where “and” joins values, the source holds several entries; their conditions need not be identical. Identical values can stand only once.

What was measured:
haemoglobin = assay: Haemoglobin concentration in brain homogenate (rapid cyanhaemiglobin method) after one-off i.p. erythropoetin injection; format: in vivo, mice; conditions: 5000 units/kg i.p., 24 hours after injection, perfused brain, n=3
Experimental: In continuation of Example 3, the haemoglobin concentration was also determined in the brain of mice to whom intraperitoneal erythropoetin (Erypo made by the company Janssen) had been administered (5000 units/kg body weight). After injection of EPO, the mice were terminally anaesthetised after 24 hours by injection with Rompun/Ketanest, and the blood was rinsed out of the vascular system of the brain by transcardial perfusion with 40 ml Hanks balanced salt solution (HBSS). […] The protein content of the samples was determined according to the Bradford method (Bradford, 1976, Anal. Biochem. 72, 248-254). The haemoglobin concentration was measured with the rapid cyanhaemiglobin method (van Kampen and Zijlstra, 1961, Clin. Chim. Acta 6, 538-544). […] The extinction at 546 nm was then measured and multiplied by 36.7 to obtain the concentration in g/dl. These values were then related to the protein concentration/volume brain tissue, giving the following values (including the measured transgenic animals from Example 3): control animals: 32.54±17.51 μg/mg brain protein (n=10); EPO-transgenic animals (line tg6): 79.00±32.12 (n=13); EPO-injected animals (24 hours after injection): 77.14±13.51 μg/mg brain protein (n=3). […]

alpha globin = alpha globin induction in the animals of the neuroglobin experiment; format: in vivo; conditions: same animals as neuroglobin test, 5000 units/kg i.p.
Description: (§1) However, it has important biochemical characteristics which fundamentally distinguish it from the globins, e.g. a far higher oxygen affinity (Dewilde et al. (2001), Journal of Biological Chemistry, 276, 38949-55). Neuroglobin is neuroprotective, although the mechanism here is not known (Sun et al. (2001), Proc. Natl. Acad. Sci. USA, 98, 15306-11, Venis (2001), Lancet, 358, 2055, Sun et al. (2003), Proc. Natl. Acad. Sci. USA, 5, 5). To determine whether neuroglobin possibly also plays a role in erythropoetin-conveyed neuroprotection, the relative content of neuroglobin mRNA after EPO administration was determined using relative quantitative PCR in comparison with cyclophilin. 5000 units of EPO/kg body weight were applied i.p. and the animals were killed after transcardial perfusion. RNA and cDNA were obtained using standard methods. From serial dilutions of the cDNA (3 times serial dilutions), the levels of cyclophilin and neuroglobin were determined and the ratio of neuroglobin/cyclophilin in the sham-treated animals set at 1. The standard deviations in the following values relate to measurements at different dilutions (n=4) and represent the measurement accuracy. The primers used were: ng1_m_LC—1s: […] (SEQ ID NO: 14), ng1_m_LC—1as: […] (SEQ ID NO: 15) for neuroglobin. […]

[1] = tested on: δ-aminolaevulinic acid synthase (ALAS) mRNA; assay: Quantitative PCR for ALAS mRNA in brain of EPO-injected animals; format: in vivo
Description: The primer sequences used and PCR conditions were, for ALAS:
(annealing temperature: 60 C.; measurement temperature: 83 C.; 45 cycles), and for DALDH: Daldh_m—1 s: […] (SEQ ID NO:12), daldh_m—1 as: […] (SEQ ID NO: 13) (annealing temperature: 60 C.; measurement temperature: 85 C.; 45 cycles).
Through the daily administration of this dosage of EPO for 7 days, induction factors of up to 130 times were achieved: sham: 1±0.64; EPO-injected animal 1 (Epo—1)=11.67±5.46; EPO-injected animal 2 (Epo—2)=118.93±31.02; EPO-injected animal 3 (Epo—3)=44.88±15.15; EPO-injected animal 4 (Epo—4)=129.47±8.77 (FIG. 18).

beta globin = beta globin induction in the animals of the neuroglobin experiment; format: in vivo; conditions: same animals as neuroglobin test, 5000 units/kg i.p.
Description: as §1

neuroglobin mRNA = assay: Quantitative PCR for neuroglobin mRNA after erythropoetin injection; format: in vivo; conditions: 5000 units/kg i.p., single injection
Description: as §1

[2] = 5000 units/kg i.p. daily for 7 days

Q: With Erythropoietin [EPO] as the substance, how does the “haemoglobin concentration related to brain protein” value (haemoglobin) read?
A: 77.14±13.51 μg/mg brain protein

Q: What about the alpha globin induction (alpha globin) of the same substance?
A: approx. 14 times

Q: And the ALAS induction factors [1, 2]?
A: up to 130 times

Q: What about the “ALAS mRNA level (sham = 1), individual animals” value [1, 2] of the same substance?
A: 11.67±5.46 and 118.93±31.02 and 44.88±15.15 and 129.47±8.77

Q: And the “ALAS mRNA level (sham = 1), individual animals” value ([1]; one-off dose 5000 units/kg i.p., 24 h)?
A: 10.07±0.00 and 8.76±0.18 and 14.69±0.27

Q: And the ALAS induction ([1]; same animals as neuroglobin test, 5000 units/kg i.p.)?
A: approx. 10 times

Q: What about the beta globin induction (beta globin) of the same substance?
A: approx. 10 times

Q: What about the “ratio neuroglobin/cyclophilin mRNA (sham-treated set at 1), individual animals” value (neuroglobin mRNA) of the same substance?
A: no induction and 1.01±0.15 and 0.99±0.15 and 1.04±0.13
